Measured values: patent publication US7763630B2 (priority 2007, dated 2010)

Tests used:
HIV-integrase = HIV-integrase (Human immunodeficiency virus type 1 group M subtype B, UniProt P12497); assay: HIV-Integrase Inhibition Activity (SPA strand transfer assay)
Experimental: HIV-Integrase Inhibition Activity. To evaluate in-vitro activity against HIV-integrase, 5 pmole of biotin labeled substrate DNA was bound to 100 μg of Streptavidin coated PVT SPA beads (Amersham Pharmacia Biotech). Recombinant integrase (0.26 ng) was incubated with the beads for 90 min at 37° C. Unbound enzyme was removed by washing the complex followed by addition of inhibitors and 0.1 fmol of P33 labeled target DNA. The reaction was stopped by adding EDTA to a final concentration of 10 mM. Samples were counted in TopCountNXT (Packard) and the CPM was used as a measure of integration. […] Activity equal to A refers to a compound having IC50=0.002 to 0.10 μM while B and C denote compounds having IC50=0.1 to 1.0 μM and IC50≧1.0 μM respectively.

[1] = tested on: recombinant NL-Rluc virus; assay: Inhibition of HIV replication (NL-Rluc virus); type: cell-based; details: Human immunodeficiency virus 1, read-out: Antiviral Activity
purified integrase = purified integrase (Human immunodeficiency virus type 1 group M subtype B, UniProt P12497); assay: HIV-Integrase binding assay (competition with radiolabeled compound A)
Experimental: HIV-Integrase binding assay. In this assay competitive binding experiments with test compounds and a radiolabeled integrase inhibitor (compound A) are performed against purified integrase. SPA bead/DNA/enzyme complexes were prepared as for the integrase inhibition assay except, to each well, 0.69 μl of integrase enzyme (0.42 mg/μl) was used per 2 μl of LTR DNA-attached scintillation proximity beads (stock 50 mg/ml). Binding reactions were carried out in 96-well white polystyrene assay plates (Corning, #3600). The following was added sequentially to each well: 20 μl of water or 20 μl of human serum (Cellgro Cat #35-060-CL), 5 μl of serially diluted compound (in 50% DMSO/50% integrase SPA buffer), 5 μl of [^3H]-compound I (6,000 cpm/μl in SPA buffer) and 20 μl of bead/DNA/enzyme complex. The plates were shaken for 2 hours and then allowed to sit at room temperature without shaking overnight. The [^3H]-compound I binding was measured using a Topcount scintillation counter. Cheng and Prusoff equations were used to convert the inhibition of compound 1 binding into the corresponding Ki value.

SMILES	IC50 (HIV-integrase) [nM]	EC50 [1] [nM]	Ki (purified integrase) [nM]
Cn1c(C2CCOC2)nc(C(=O)NCc2ccc(F)cc2)c(O)c1=O (stereo not drawn) [Example 1, N-(4-Fluorobenzyl)-5-hydroxy-1-methyl-6-oxo-2-(tetrahydrofuran-3-yl)-1,6-dihydropyrimidine-4-carboxamide]	2 to 100	3 to 100	–
Cc1cc(CNC(=O)c2nc(C3CCOC3)n(C)c(=O)c2O)ccc1F (stereo not drawn) [Example 2, N-(4-Fluoro-3-methylbenzyl)-5-hydroxy-1-methyl-6-oxo-2-(tetrahydrofuran-3-yl)-1,6-dihydropyrimidine-4-carboxamide]	2 to 100	3 to 100	–
Cn1c(C2CCOC2)nc(C(=O)NCc2ccc(F)cc2-n2cncn2)c(O)c1=O (stereo not drawn) [Example 3, N-(4-fluoro-2-(1H-1,2,4-triazol-1-yl)benzyl)-5-hydroxy-1-methyl-6-oxo-2-(tetrahydrofuran-3-yl)-1,6-dihydropyrimidine-4-carboxamide]	–	3 to 100	1 to 3
Cc1ncnn1-c1cc(F)ccc1CNC(=O)c1nc(C2CCOC2)n(C)c(=O)c1O (stereo not drawn) [Example 4, N-(4-fluoro-2-(5-methyl-1H-1,2,4-triazol-1-yl)benzyl)-5-hydroxy-1-methyl-6-oxo-2-(tetrahydrofuran-3-yl)-1,6-dihydropyrimidine-4-carboxamide]	–	3 to 100	3 to 50
Cc1cnnn1-c1cc(F)ccc1CNC(=O)c1nc(C2CCOC2)n(C)c(=O)c1O (stereo not drawn) [Example 5, N-(4-fluoro-2-(5-methyl-1H-1,2,3-triazol-1-yl)benzyl)-5-hydroxy-1-methyl-6-oxo-2-(tetrahydrofuran-3-yl)-1,6-dihydropyrimidine-4-carboxamide]	–	3 to 100	3 to 50
Cn1ncnc1-c1cc(F)ccc1CNC(=O)c1nc(C2CCOC2)n(C)c(=O)c1O (stereo not drawn) [Example 6, N-(4-fluoro-2-(1-methyl-1H-1,2,4-triazol-5-yl)benzyl)-5-hydroxy-1-methyl-6-oxo-2-(tetrahydrofuran-3-yl)-1,6-dihydropyrimidine-4-carboxamide]	–	3 to 100	3 to 50
Cn1c(C2CCOC2)nc(C(=O)NCc2ccc(F)cc2S(C)(=O)=O)c(O)c1=O (stereo not drawn) [Example 7, N-(4-fluoro-2-(methylsulfonyl)benzyl)-5-hydroxy-1-methyl-6-oxo-2-(tetrahydrofuran-3-yl)-1,6-dihydropyrimidine-4-carboxamide]	–	3 to 100	3 to 50
Cn1c(C2CCOC2)nc(C(=O)NCc2ccccc2N2CCCCS2(=O)=O)c(O)c1=O (stereo not drawn) [Example 8]	–	3 to 100	3 to 50
CN(C)S(=O)(=O)c1cc(F)ccc1CNC(=O)c1nc(C2CCOC2)n(C)c(=O)c1O (stereo not drawn) [Example 10, N-(2-(N,N-dimethylsulfamoyl)-4-fluorobenzyl)-5-hydroxy-1-methyl-6-oxo-2-(tetrahydrofuran-3-yl)-1,6-dihydropyrimidine-4-carboxamide]	–	3 to 100	3 to 50
Cn1cnnc1-c1cc(F)ccc1CNC(=O)c1nc(C2CCOC2)n(C)c(=O)c1O (stereo not drawn) [Example 11, N-(4-fluoro-2-(4-methyl-4H-1,2,4-triazol-3-yl)benzyl)-5-hydroxy-1-methyl-6-oxo-2-(tetrahydrofuran-3-yl)-1,6-dihydropyrimidine-4-carboxamide]	–	3 to 100	1 to 3
CN1CCN(c2cc(F)ccc2CNC(=O)c2nc(C3CCOC3)n(C)c(=O)c2O)C1=O (stereo not drawn) [Example 12, N-(4-fluoro-2-(3-methyl-2-oxoimidazolidin-1-yl)benzyl)-5-hydroxy-1-methyl-6-oxo-2-(tetrahydrofuran-3-yl)-1,6-dihydropyrimidine-4-carboxamide]	–	3 to 100	1 to 3
COCCN1CCN(c2cc(F)ccc2CNC(=O)c2nc(C3CCOC3)n(C)c(=O)c2O)C1=O (stereo not drawn) [Example 13, N-(4-fluoro-2-(3-(2-methoxyethyl)-2-oxoimidazolidin-1-yl)benzyl)-5-hydroxy-1-methyl-6-oxo-2-(tetrahydrofuran-3-yl)-1,6-dihydropyrimidine-4-carboxamide]	–	3 to 100	1 to 3
Cn1c(C2CCOC2)nc(C(=O)NCc2ccc(F)cc2N2CCN(CCO)C2=O)c(O)c1=O (stereo not drawn) [Example 14, N-(4-fluoro-2-(3-(2-hydroxyethyl)-2-oxoimidazolidin-1-yl)benzyl)-5-hydroxy-1-methyl-6-oxo-2-(tetrahydrofuran-3-yl)-1,6-dihydropyrimidine-4-carboxamide]	–	3 to 100	1 to 3
Cn1c(C2COCC2O)nc(C(=O)NCc2ccc(F)cc2)c(O)c1=O (stereo not drawn) [Example 15, N-(4-Fluorobenzyl)-5-hydroxy-2-(4-hydroxytetrahydrofuran-3-yl)-1-methyl-6-oxo-1,6-dihydropyrimidine-4-carboxamide]	2 to 100	3 to 100	–
CSC1COCC1c1nc(C(=O)NCc2ccc(F)cc2)c(O)c(=O)n1C (stereo not drawn) [Example 16, N-(4-Fluorobenzyl)-5-hydroxy-1-methyl-2-(4-(methylthio)tetrahydrofuran-3-yl)-6-oxo-1,6-dihydropyrimidine-4-carboxamide]	2 to 100	3 to 100	–
Cn1c(C2CCOCC2)nc(C(=O)NCc2ccc(F)cc2)c(O)c1=O [Example 17, N-(4-Fluorobenzyl)-5-hydroxy-1-methyl-6-oxo-2-(tetrahydro-2H-pyran-4-yl)-1,6-dihydropyrimidine-4-carboxamide]	2 to 100	3 to 100	–
Cn1c(C2CCOCC2)nc(C(=O)NCc2ccc(F)cc2-n2cncn2)c(O)c1=O [Example 18, N-(4-fluoro-2-(1H-1,2,4-triazol-1-yl)benzyl)-5-hydroxy-1-methyl-6-oxo-2-(tetrahydro-2H-pyran-4-yl)-1,6-dihydropyrimidine-4-carboxamide]	–	3 to 100	3 to 50
Cc1ncnn1-c1cc(F)ccc1CNC(=O)c1nc(C2CCOCC2)n(C)c(=O)c1O [Example 19, N-(4-fluoro-2-(5-methyl-1H-1,2,4-triazol-1-yl)benzyl)-5-hydroxy-1-methyl-6-oxo-2-(tetrahydro-2H-pyran-4-yl)-1,6-dihydropyrimidine-4-carboxamide]	–	3 to 100	3 to 50
Cc1cnnn1-c1cc(F)ccc1CNC(=O)c1nc(C2CCOCC2)n(C)c(=O)c1O [Example 20, N-(4-fluoro-2-(5-methyl-1H-1,2,3-triazol-1-yl)benzyl)-5-hydroxy-1-methyl-6-oxo-2-(tetrahydro-2H-pyran-4-yl)-1,6-dihydropyrimidine-4-carboxamide]	–	3 to 100	3 to 50
Cn1ncnc1-c1cc(F)ccc1CNC(=O)c1nc(C2CCOCC2)n(C)c(=O)c1O [Example 21, N-(4-fluoro-2-(1-methyl-1H-1,2,4-triazol-5-yl)benzyl)-5-hydroxy-1-methyl-6-oxo-2-(tetrahydro-2H-pyran-4-yl)-1,6-dihydropyrimidine-4-carboxamide]	–	3 to 100	1 to 3
Cn1c(C2CCOCC2)nc(C(=O)NCc2ccc(F)cc2S(C)(=O)=O)c(O)c1=O [Example 22, N-(4-fluoro-2-(methylsulfonyl)benzyl)-5-hydroxy-1-methyl-6-oxo-2-(tetrahydro-2H-pyran-4-yl)-1,6-dihydropyrimidine-4-carboxamide]	–	3 to 100	3 to 50
CN(C)S(=O)(=O)c1cc(F)ccc1CNC(=O)c1nc(C2CCOCC2)n(C)c(=O)c1O [Example 23, N-(2-(N,N-dimethylsulfamoyl)-4-fluorobenzyl)-5-hydroxy-1-methyl-6-oxo-2-(tetrahydro-2H-pyran-4-yl)-1,6-dihydropyrimidine-4-carboxamide]	–	3 to 100	3 to 50
Cn1c(C2CCOCC2)nc(C(=O)NCc2ccccc2N2CCCCS2(=O)=O)c(O)c1=O [Example 25]	–	3 to 100	3 to 50
Cn1cnnc1-c1cc(F)ccc1CNC(=O)c1nc(C2CCOCC2)n(C)c(=O)c1O [Example 26, N-(4-fluoro-2-(4-methyl-4H-1,2,4-triazol-3-yl)benzyl)-5-hydroxy-1-methyl-6-oxo-2-(tetrahydro-2H-pyran-4-yl)-1,6-dihydropyrimidine-4-carboxamide]	–	3 to 100	1 to 3
